In patent US20240197761A1, “FUCOSYLATION AND IMMUNE MODULATION IN CANCER” (H. LEE MOFFITT CANCER CENTER AND RESEARCH INSTITUTE, INC., priority 2021, published 2024):

Test system: fucosylated HLA-DRB1 in WM793 cells
Test: Lectin-mediated proximity ligation assay (L-PLA) of fucosylated HLA-DRB1
Assay type: cell-based, human
Details: vs. DMSO
From the text: FIGS. 22A-221 show Schematic of L-PLA staining and verification of fucosylated HLA-DRB1 staining, which is weakly associated with tumor peripheral CD4+T cells; and the effects of L-fucose on tumor PD-L1 expression (a) Schematic of lectin-mediated proximity ligation analysis (L-PLA) using fucosylated HLA-DRB1 (fuco-HLA-DRB1) as an example. We stained for (i) HLA-DRB1 using […]-HLA-DRB1 followed by (+) oligo-conjugated PLA secondary and (ii) fucosylated glycan using biotinylated (“B”) AAL lectin followed by D-biotin followed by (−) oligo-conjugated PLA secondary. Ligated PLA oligos were subjected to rolling circle amplification PCR (RCA PCR), giving rise to fluorescent punctae. […] Single melanoma marker, AAL-FITC, and HLA-DRB1 channels are shown in white for clearer visualization. […] (d) FFPE melanoma tissues were subjected to L-PLA HLA-DRB1 staining ±500 mM L-fucose wash and subsequent staining with melanoma marker (MART1+SI10 cocktail), and DAPI. Single melanoma marker and fuco-HLA-DRB1 channels are shown in white for clear visualization. Total loss of fuco-HLA-DRB1 signal in the +L-fucose wash tissue confirms the fucose-specificity of L-PLA for fuco-HLA-DRB1. […]
Laboratories (Burlingame, CA)), on coverslips overnight in 4° C. […] Microscopy images were acquired using a Keyence BZ-X710, and images were process and analyzed using FIJI (NIH).

CC(=O)OC1O[C@@H](C)[C@@H](OC(C)=O)[C@@H](OC(C)=O)[C@@H]1F (stereo partly shown) [FUTi, 2F-peracteyl-fucose, reference compound]
L-PLA staining of endogenous fucosylated HLA-DRB1: lost
